One data set relates to Bacillus subtilis. The data set can be described thus: Antibacterial activity against Bacillus subtilis assessed as reduction in bacterial growth. It is filed as functional, organism-based.
Another data set relates to Escherichia coli. Nature of the data set: Antimicrobial activity against Escherichia coli assessed as reduction in microbial growth. It is filed as functional, organism-based.
The nature of data set [1]: Antioxidant activity assessed as hydroxyl radical scavenging activity. It is filed as functional.
Data set [2] has as its system A549. Nature of the data set: Growth inhibition of human A549 cells measured for 48 hrs by SRB assay. It is filed as functional. For orientation: Sulforhodamine B stains cellular protein and so reports cell mass.
A further data set deals with PC-3. The data set can be described thus: Growth inhibition of human PC-3 cells measured for 48 hrs by SRB assay. It is filed as functional.
Data set [3] concerns MCF7. Nature of the data set: Growth inhibition of human MCF7 cells measured for 48 hrs by SRB assay. It is filed as functional.
The subject of data set [4] is HepG2. Nature of the data set: Growth inhibition of human HepG2 cells measured for 48 hrs by SRB assay. It is filed as functional.
A short description of data set [5]: Antioxidant activity assessed as DPPH radical scavenging activity. It is filed as functional.
In data set [6] the test system is HeLa. Nature of the data set: Antiproliferative activity against human HeLa cells assessed as reduction in cell viability incubated for 24 hrs by MTT assay. It is filed as functional, cell-based. In general terms: Formazan colour is commonly taken as a measure of viable cells.
In data set [7] the test system is A549. The data set can be described thus: Antiproliferative activity against human A549 cells assessed as reduction in cell viability incubated for 24 hrs by MTT assay. It is filed as functional, cell-based. The settings on record: A549, 24 h.
In data set [8] the test system is HCT-116. Nature of the data set: Antiproliferative activity against human HCT-116 cells assessed as reduction in cell viability incubated for 24 hrs by MTT assay. It is filed as functional, cell-based. The settings on record: HCT-116, 24 h.
Data set [9] relates to A549. Nature of the data set: Cytotoxicity against human A549 cells assessed as reduction in cell viability by MTT assay. It is filed as functional, cell-based.
In data set [10] the test system is MCF7. The data set can be described thus: Cytotoxicity against human MCF7 cells assessed as reduction in cell viability by MTT assay. It is filed as functional, cell-based.
Data set [11] in a line: Cytotoxicity against human BEAS-2B cells assessed as reduction in cell viability by MTT assay. It is filed as toxicity, cell-based.
Data set [12] concerns HeLa. Nature of the data set: Antiproliferative activity against human HeLa cells assessed as reduction in cell viability incubated for 48 hrs by MTT assay. It is filed as functional, cell-based.
Data set [13] deals with HCT-116. The data set can be described thus: Anticancer activity against human HCT-116 cells assessed as inhibition of cell viability at 20 uM relative to control. It is filed as functional.
The test system of data set [14] is HCT-116. Nature of the data set: Anticancer activity against human HCT-116 cells assessed as reduction in cell viability. It is filed as functional, cell-based.
The subject of another data set is HL-60. The data set can be described thus: Cytotoxicity against human HL-60 cells assessed as reduction in cell growth by resazurin assay. It is filed as functional, cell-based. For orientation: Resazurin is reduced to fluorescent resorufin, in cell work by metabolically active cells.
Data set [15] deals with Cyclin-dependent kinases regulatory subunit 1/S-phase kinase-associated protein 2 (Homo sapiens) (UniProt P61024+Q13309). The data set can be described thus: Inhibition of SKP2/CKS1 (unknown origin) protein-protein interaction at 50 uM relative to control. It is filed as protein assay.
For data set [16], the system named is A549. The data set can be described thus: Cytotoxicity against human A549 cells assessed as reduction in cell growth by resazurin assay. It is filed as functional, cell-based.
The next data set concerns NIH3T3. Nature of the data set: Cytotoxicity against mouse NIH/3T3 cells assessed as reduction in cell growth by resazurin assay. It is filed as functional, cell-based.
Data set [17] concerns MDA-MB-231. Nature of the data set: Antiproliferative activity against human MDA-MB-231 cells. It is filed as functional, cell-based.
For a further data set, the system named is T47D. Nature of the data set: Antiproliferative activity against human T47D cells. It is filed as functional, cell-based.
Data set [18] deals with MCF7. Nature of the data set: Antiproliferative activity against human MCF7 cells. It is filed as functional, cell-based.
Another data set relates to LoVo. The data set can be described thus: Antiproliferative activity against human LoVo cells. It is filed as functional, cell-based.
The test system of data set [19] is HCT-116. Nature of the data set: Antiproliferative activity against human HCT-116 cells. It is filed as functional, cell-based.
In the next data set the test system is DU-145. Nature of the data set: Cytotoxicity against human DU-145 cells assessed as reduction in cell viability incubated for 48 hrs by SRB assay. It is filed as functional, cell-based. As to conditions: DU-145, 48 h.
The subject of data set [20] is MDA-MB-231. The data set can be described thus: Cytotoxicity against human MDA-MB-231 cells assessed as reduction in cell viability incubated for 48 hrs by SRB assay. The settings on record: MDA-MB-231, 48 h. It is filed as functional, cell-based.
Data set [21] relates to HepG2. The data set can be described thus: Cytotoxicity against human HepG2 cells assessed as reduction in cell viability incubated for 48 hrs by SRB assay. It is filed as functional, cell-based. As to conditions: HepG2, 48 h.
For data set [22], the system named is HeLa. Nature of the data set: Cytotoxicity against human HeLa cells assessed as reduction in cell viability incubated for 48 hrs by SRB assay. It is filed as functional, cell-based.
The next data set concerns BXPC-3. The data set can be described thus: Antiproliferative activity against human BXPC-3 cells assessed as reduction in cell growth incubated for 72 hrs by MTT assay. It is filed as functional, cell-based.
For data set [23], the system named is HeLa. The data set can be described thus: Antiproliferative activity against human HeLa cells assessed as reduction in cell growth by MTT assay. It is filed as functional, cell-based.
In data set [24] the test system is A549. Nature of the data set: Antiproliferative activity against human A549 cells assessed as reduction in cell growth by MTT assay. It is filed as functional, cell-based.

Our source for the IC50, GI50 and inhibition values is ChEMBL document CHEMBL6134800, “Applications of innovative synthetic strategies in anticancer drug discovery: The driving force of new chemical reactions” (Bioorg Med Chem Lett, 2025).

A word on the IC50: it is the concentration at which inhibition is half-maximal. One may read the GI50 as the concentration giving 50% growth inhibition. A lower GI50 goes with more potent growth inhibition. Usually inhibition stands for how much of the control response was suppressed.

Values after ≈ are worked out from the molar mass of the structure shown. Bounds are passed on as bounds.

Chain of Cyclin-dependent kinases regulatory subunit 1/S-phase kinase-associated protein 2 (Homo sapiens) (P61024 2-79 limits assumed): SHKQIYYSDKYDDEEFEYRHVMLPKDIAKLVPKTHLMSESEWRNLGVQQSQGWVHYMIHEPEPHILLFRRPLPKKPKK
Chain of Cyclin-dependent kinases regulatory subunit 1/S-phase kinase-associated protein 2 (Homo sapiens) (Q13309 whole entry partner): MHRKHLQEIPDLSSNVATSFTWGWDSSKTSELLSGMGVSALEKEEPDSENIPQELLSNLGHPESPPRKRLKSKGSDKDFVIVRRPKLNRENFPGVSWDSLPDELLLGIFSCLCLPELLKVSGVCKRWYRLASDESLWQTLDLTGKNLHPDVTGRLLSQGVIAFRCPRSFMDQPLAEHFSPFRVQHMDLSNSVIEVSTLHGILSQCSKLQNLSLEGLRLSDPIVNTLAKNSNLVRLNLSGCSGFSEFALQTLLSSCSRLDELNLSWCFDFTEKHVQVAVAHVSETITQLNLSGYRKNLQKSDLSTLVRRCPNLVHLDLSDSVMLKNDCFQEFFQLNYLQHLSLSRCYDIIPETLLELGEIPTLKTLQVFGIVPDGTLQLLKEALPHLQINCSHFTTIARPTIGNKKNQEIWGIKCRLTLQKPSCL

For `C[C@H]1c2cccc(O)c2C(=O)C2=C(O)[C@]3(O)C(=O)C(C(N)=O)=C(O)[C@@H](N(C)C)[C@@H]3[C@@H](O)[C@@H]21` [DOXYCYCLINE ANHYDROUS], the IC50 in the data set on Bacillus subtilis came to 0.126 µM; with Escherichia coli, 0.1 µM.

For `CCc1cc(C(=O)c2ccccc2Cl)c(NC(c2cc(OC)c(OC)c(OC)c2)c2c(O)ccc3ccccc23)s1` (configuration not stated), the figures for the concentration for half-maximal inhibition (IC50) in data set [1] and in data set [5] were 32.8 µM and 33.5 µM, respectively. Further, the concentration for 50% growth inhibition (GI50) with A549 [2], with PC-3, in the data set on MCF7 [3] and with HepG2 [4] was less than 10 mg/L each time.

For the compound `COc1ccc(C2c3ccccc3-c3nc(C)cc(C(F)(F)F)c32)cc1` (configuration not stated), the figures for the IC50 in the data set on HeLa [6], in the data set on A549 [7] and with HCT-116 [8] were 6.65 µM, 12.3 µM and 14.9 µM, respectively.

Regarding `COc1ccccc1C1=C2C(=O)c3ccccc3C(=O)/N=C3/c4ccccc4C(=O)C23c2cccc3c2N1CC3` (configuration not stated), the IC50 with HeLa [6] came to 1.54 µM; in the data set on A549 [7] it was 8.43 µM; in the data set on HCT-116 [8], 2.1 µM.

Regarding `COC(=O)c1nc2nc(Oc3ccccc3)c(C#N)c(-c3cccc([N+](=O)[O-])c3)c2c(N)c1C(=O)OC`, the half-maximal inhibitory concentration (IC50) was 6.12 mg/L (≈ 12.3 µM) in the data set on A549 [9], 1.48 mg/L (≈ 2.96 µM) in the data set on MCF7 [10] and 4.09 mg/L (≈ 8.19 µM) in [11].

As for `Cc1nn(-c2ccccc2Cl)c(O)c1-c1ccccc1C1=Nc2ccccc2C1(C)C`, the IC50 in the data set with HeLa [12] is 26.7 µM.

On to `CC(C)OC(=O)C1=CN(c2ccccc2)CC(O)(c2cccc(Cl)c2)O1` (configuration not stated), for which the inhibition at 20 µM in the data set on HCT-116 [13] turned out to be 77%. In the data set with HCT-116 [14], the 50% inhibitory concentration (IC50) was determined as 7.1 µM.

`CC(C)C[C@H](NC(=O)[C@H](Cc1ccccc1)NC(=O)c1cnccn1)B(O)O` [BORTEZOMIB]: the half-maximal inhibitory concentration (IC50) in the data set with HL-60 amounted to 7.42 µM.

`COc1ccc(N2C(=O)c3ccccc3C2Cc2cc(-c3c(OC)cc(OC)cc3OC)n3ncnc3n2)cc1` (configuration not stated): the inhibition in [15] was 54%.

Take `Cc1cc(C)cc(P(=O)(c2cc(C)cc(C)c2)C2C(C#N)=C(N)Oc3ccc(F)cc32)c1` (configuration not stated): the IC50 with A549 [16] is more than 30 µM; with NIH3T3, more than 30 µM; in the data set with HL-60, 10.1 µM; with Bacillus subtilis it was 5.03 µM; with Escherichia coli, more than 10 µM.

For `CN1C(=O)C2(N=C(c3ccccc3)N3CCc4cc(Br)cc2c43)c2ccccc21` (configuration not stated), the IC50 in the data set with A549 [7] worked out at 1 µM.

For the compound `C=C1N(S(=O)(=O)c2ccc(C)cc2)c2ccccc2[C@]1(C)N`, the IC50 in the data set on MDA-MB-231 [17] worked out at 2.15 µM; in the data set on T47D, 2.88 µM; in the data set with MCF7 [18] it was 2.21 µM; with LoVo, 3.65 µM; with HCT-116 [19], 4.3 µM.

With `COc1cccc2c1C(=O)c1c(O)c3c(c(O)c1C2=O)C[C@@](O)(C(=O)CO)C[C@@H]3O[C@H]1C[C@H](N)[C@H](O)[C@H](C)O1.Cl` [DOXORUBICIN HYDROCHLORIDE], the IC50 in the data set on DU-145 turned out to be 3.82 mg/L; in the data set on MDA-MB-231 [20] it was 8.64 mg/L; in the data set on HepG2 [21] it was 26.7 mg/L; with HeLa [22] it was 12.6 mg/L.

On to `Cc1ccc([C@H]2NC(=O)n3c(cc4ccccc43)C23CC3)cc1` (stereo in doubt; 16a), for which the IC50 in the data set with BXPC-3 (bxpc-3) is 8.6 µM.

`Cc1cc(C)cc(P(=O)(c2cc(C)cc(C)c2)C2C(C#N)=C(N)Oc3c(Br)cccc32)c1` (configuration not stated): the 50% inhibitory concentration (IC50) in the data set on A549 [16] was more than 30 µM; in the data set on NIH3T3, more than 30 µM; with HL-60 it was 9.8 µM; in the data set with Bacillus subtilis it was more than 10 µM; in the data set with Escherichia coli it was more than 10 µM.

As to `O=C1/N=C2/c3ccccc3C(=O)C23C(=C(c2cccs2)N2CCc4cccc3c42)C(=O)c2ccccc21` (configuration not stated), the values for the IC50 with HeLa [6], in the data set with A549 [7] and in the data set with HCT-116 [8] were 1.6 µM, 9.18 µM and 1.63 µM, respectively.

Consider `N#CC1=C(N)Oc2ccccc2C1P(=O)(OCc1ccccc1)OCc1ccccc1` (configuration not stated), for which the IC50 is 26.5 µM in the data set on A549 [16]; 8.73 µM in the data set with NIH3T3; 6.25 µM in the data set on HL-60; more than 10 µM in the data set on Bacillus subtilis; more than 10 µM in the data set on Escherichia coli.

Regarding `COc1ccc(C2c3ccccc3-c3nc(C)cc(C(F)(F)F)c32)cc1OC` (configuration not stated), the IC50 in the data set on HeLa [6] is 5.52 µM; in the data set on A549 [7], 19.5 µM; in the data set on HCT-116 [8], 15.4 µM.

Turning to `OC1(C(F)(F)F)C=C(c2ccccc2)c2cc3ccccc3n21` (configuration not stated), the IC50 amounted to 2.17 µM in the data set on HeLa [23] and 11.9 µM in the data set on A549 [24].

As for `Cc1ccc(C2NC(=O)n3c(cc4ccccc43)C23CC3)cc1` (racemic), the IC50 in the data set on BXPC-3 (Homo sapiens, BXPC-3, 72 h) came to 3.1 µM.
